The values below come from BindingDB's records for doi:10.1021/jm00151a024 (1986).

Structures are written as SMILES. pKi: −log10 of the molar value.

This assay in a line: Apparent binding affinity for Alanine racemase from Pseudomonas aeruginosa.

By pKi is commonly meant the negative decadic logarithm of the Ki, by convention in mol/L. Consider `NC(C(Cl)Cl)P(=O)(O)O` (configuration not stated) [(1-Amino-2,2-dichloro-ethyl)-phosphonic acid], for which the pKi was 2.70.

For the compound `NC(CCl)P(=O)(O)O` (configuration not stated) [(1-Amino-2-chloro-ethyl)-phosphonic acid], the pKi is 3.09.
